The record followed here is DBAASP.

≈ marks a conversion by molar mass, not a printed value.

Among the test systems are Proteus vulgaris; Acinetobacter baumannii; Escherichia coli 170; Escherichia coli 4530; Escherichia coli OP50; Staphylococcus aureus; Escherichia coli ML-35.
Assay in all cases: ≥ marks a high value that may be exact or a test limit, other limits are often not marked, values filed in µg/mL are converted to µM
Assay [1] deals with Escherichia coli ATCC 25922.
Assay [2] has as its system Staphylococcus aureus ATCC 25929.
Assay [3] deals with Aspergillus flavus KCTC 7375.
Assay [4] relates to Bacillus megaterium KCTC 1096.
Assay [5] has as its system Bacillus subtilis KCTC 1918.
Assay [6] concerns Candida albicans KCTC 7121.
The test system of assay [7] is Escherichia coli KCTC 1682.
Assay [8] concerns Fusarium oxysporum KCTC 6084.
Assay [9] concerns Pseudomonas aeruginosa KCTC 1637.
In assay [10] the test system is Staphylococcus aureus KCTC 1621.
Assay [11] concerns Trichosporon beigelii KCTC 7251.
Assay [12] concerns Enterobacter cloacae 2524.
The subject of assay [13] is Enterobacter cloacae 6780.
Assay [14] concerns Klebsiella pneumoniae 1625.
The test system of assay [15] is Klebsiella pneumoniae 913.
The test system of assay [16] is Pseudomonas aeruginosa 4677.
Assay [17] deals with Bacillus subtilis IFO 3143.
The subject of assay [18] is Escherichia coli IFO 12734.
The subject of assay [19] is Pseudomonas aeruginosa IFO 12582.
Assay [20] deals with Staphylococcus aureus IFO 12732.
Assay [21] deals with Bacillus subtilis IFO 3513.
In assay [22] the test system is Salmonella enterica subsp. enterica serovar Typhimurium ATCC 14028.
Assay [23] relates to Serratia marcescens ATCC 8100.
Assay [24] relates to Staphylococcus aureus ATCC 25923.

As usually defined, the MIC is the lowest concentration found to suppress growth. A high value points to a need for much substance. As to `CC(C)C[C@H](NC(=O)[C@H](CO)NC(=O)[C@@H]1CCCN1C(=O)[C@H](CO)NC(=O)[C@H](CC(C)C)NC(=O)[C@@H](N)CCCCN)C(=O)NCC(=O)N1CCC[C@H]1C(=O)N[C@H](C(=O)N[C@@H](CO)C(=O)N[C@@H](CCCCN)C(=O)NCC(=O)N[C@@H](CCCCN)C(=O)N[C@@H](CC(C)C)C(=O)N[C@@H](CC(C)C)C(=O)N[C@@H](C)C(=O)NCC(=O)N[C@@H](CCC(N)=O)C(=O)N[C@@H](CCCN=C(N)N)C(N)=O)C(C)C` [KLSPSLGPVSKGKLLAGQR], the MIC in [1] was 33 µM (≈ 63.9 µg/mL); in [2] it was at least 66 µM.
In the case of `CC[C@H](C)[C@H](NC(=O)[C@H](CCCCN)NC(=O)[C@H](CCCCN)NC(=O)[C@H](Cc1ccccc1)NC(=O)[C@H](CC(C)C)NC(=O)[C@H](CCCCN)NC(=O)[C@H](Cc1c[nH]c2ccccc12)NC(=O)[C@@H](N)CCCCN)C(=O)N[C@@H](CC(C)C)C(=O)N[C@@H](CCCCN)C(=O)N[C@@H](Cc1ccccc1)C(=O)N[C@@H](CC(C)C)C(=O)N[C@@H](Cc1cnc[nH]1)C(=O)N[C@@H](CC(C)C)C(=O)N[C@@H](C)C(=O)N[C@@H](CCCCN)C(=O)N[C@@H](CCCCN)C(=O)N[C@@H](Cc1ccccc1)C(N)=O` [KWKLFKKILKFLHLAKKF], the MIC was 25 µM (≈ 57.9 µg/mL) in [3]; 1.56 µM (≈ 3.61 µg/mL) in assay [4]; 1.56 µM (≈ 3.61 µg/mL) in [5]; 25 µM (≈ 57.9 µg/mL) in [6]; 12.5 µM (≈ 29 µg/mL) in assay [7]; at least 50 µM in assay [8]. The MIC in the assay on Proteus vulgaris was 6.25 µM (≈ 14.5 µg/mL); in assay [9] it was 3.12 µM (≈ 7.24 µg/mL); in [10], 3.12 µM (≈ 7.24 µg/mL); in [11], 12.5 µM (≈ 29 µg/mL).
`CC[C@H](C)[C@H](N)C(=O)N[C@@H](C)C(=O)N[C@@H](CO)C(=O)N[C@@H](CCCCN)C(=O)N[C@H](C(=O)N[C@@H](C)C(=O)N[C@@H](CC(N)=O)C(=O)N[C@H](C(=O)N[C@H](C(=O)N[C@@H](CCC(N)=O)C(=O)N[C@@H](CCCCN)C(=O)N[C@@H](CC(C)C)C(=O)N[C@@H](CCCCN)C(=O)N[C@@H](CCCN=C(N)N)C(=O)N[C@@H](CCCCN)C(=O)N[C@@H](C)C(=O)N[C@@H](CCCCN)C(=O)N[C@@H](CC(N)=O)C(=O)N[C@@H](C)C(=O)N[C@H](C(=O)N[C@@H](C)C(=O)O)C(C)C)C(C)C)[C@@H](C)O)C(C)C` [IASKVANTVQKLKRKAKNAVA]: the MIC was 8.84 µM (≈ 19.8 µg/mL) against Acinetobacter baumannii; 6.25 µM (≈ 14 µg/mL) in assay [12]; at least 50 µM in assay [13]; 12.5 µM (≈ 28 µg/mL) against Escherichia coli 170; at least 50 µM against Escherichia coli 4530; above 50 µM in assay [1]. The MIC in assay [14] was at least 50 µM; in [15] it was 25 µM (≈ 56 µg/mL); in [16], at least 50 µM.
Take `CC(C)[C@@H]1NC(=O)[C@@H]2CSSC[C@@H]3NC(=O)[C@H](CCCCN)NC(=O)CNC(=O)[C@H](CCC(=O)O)NC(=O)[C@H](CC(=O)O)NC(=O)[C@H]([C@@H](C)O)NC(=O)[C@@H]4CCCN4C(=O)[C@@H](NC(=O)CNC(=O)[C@H](Cc4ccc(O)cc4)NC(=O)[C@@H]4CCCN4C(=O)[C@H](CC(N)=O)NC(=O)[C@H](CCC(=O)O)NC(=O)[C@@H](N)Cc4ccc(O)cc4)CSSC[C@H](NC(=O)[C@H](Cc4ccc(O)cc4)NC(=O)CNC(=O)CNC(=O)[C@H](CCC(=O)O)NC(=O)[C@H](Cc4ccccc4)NC(=O)[C@H](CCC(=O)O)NC(=O)[C@H](CO)NC(=O)[C@H](CC(=O)O)NC(=O)[C@H](CC(N)=O)NC(=O)[C@H](CSSC[C@@H](C(=O)N[C@@H](Cc4ccc(O)cc4)C(=O)N[C@@H](CCCN=C(N)N)C(=O)N[C@H](C(=O)O)[C@@H](C)O)NC1=O)NC(=O)[C@H](CCCN=C(N)N)NC(=O)[C@H](CC(=O)O)NC(=O)[C@H](Cc1ccccc1)NC3=O)C(=O)NCC(=O)NCC(=O)N[C@@H](CO)C(=O)N[C@@H](Cc1ccc(O)cc1)C(=O)N[C@@H](CCCN=C(N)N)C(=O)N[C@@H](C)C(=O)N[C@@H]([C@@H](C)O)C(=O)N2` [YENPYGCPTDEGKCFDRCNDSEFEGGYCGGSYRATCVCYRT]: the MIC in the assay with Escherichia coli OP50 is 30 µM (≈ 138 µg/mL); against Staphylococcus aureus, 7.5 µM (≈ 34.6 µg/mL).
As to `CC(C)C[C@H](NC(=O)[C@H](Cc1ccc(O)cc1)NC(=O)[C@H](Cc1cnc[nH]1)NC(=O)[C@@H](NC(=O)[C@H](CC(C)C)NC(=O)[C@H](C)NC(=O)[C@H](C)NC(=O)[C@H](CCCCN)NC(=O)CNC(=O)[C@@H](NC(=O)[C@H](Cc1cnc[nH]1)NC(=O)[C@H](CCCCN)NC(=O)CNC(=O)[C@@H](NC(=O)[C@H](Cc1cnc[nH]1)NC(=O)[C@H](C)NC(=O)[C@H](C)NC(=O)[C@H](CCCCN)NC(=O)[C@H](CCCCN)NC(=O)[C@H](Cc1ccccc1)NC(=O)[C@H](Cc1ccccc1)NC(=O)[C@H](CO)NC(=O)[C@H](C)NC(=O)[C@H](Cc1c[nH]c2ccccc12)NC(=O)[C@H](C)N)C(C)C)C(C)C)[C@@H](C)O)C(=O)O` [AWASFFKKAAHVGKHVGKAALTHYL], the minimum inhibitory concentration (MIC) in assay [17] came to 2.92 µM (≈ 8 µg/mL); in assay [18] it was 5.84 µM (≈ 16 µg/mL); in assay [19] it was 23.4 µM (≈ 64 µg/mL); in assay [20] it was 2.92 µM (≈ 8 µg/mL).
Consider `CC[C@H](C)[C@H](N)C(=O)N[C@@H](CC(C)C)C(=O)N1CCC[C@H]1C(=O)N[C@@H](Cc1c[nH]c2ccccc12)C(=O)N[C@@H](CCCCN)C(=O)N[C@@H](Cc1c[nH]c2ccccc12)C(=O)N1CCC[C@H]1C(=O)N[C@@H](Cc1c[nH]c2ccccc12)C(=O)N[C@@H](CC(C)C)C(=O)N1CCC[C@H]1C(=O)N[C@@H](Cc1c[nH]c2ccccc12)C(=O)N[C@@H](CCCN=C(N)N)C(=O)N[C@@H](CCCN=C(N)N)C(N)=O` [ILPWKWPWLPWRR], for which the values for the MIC in assay [21], in assay [18] and in assay [20] were 0.851 µM (≈ 1.56 µg/mL), 6.81 µM (≈ 12.5 µg/mL) and 0.851 µM (≈ 1.56 µg/mL), respectively.
On to `CC(C)C[C@H](NC(=O)[C@H](CCCN=C(N)N)NC(=O)[C@@H]1CCCN1C(=O)[C@@H]1CCCN1C(=O)[C@H](CCCN=C(N)N)NC(=O)[C@@H]1CCCN1)C(=O)N1CCC[C@H]1C(=O)N[C@@H](CCCN=C(N)N)C(=O)N1CCC[C@H]1C(=O)N[C@@H](CCCN=C(N)N)C(=O)N1CCC[C@H]1C(=O)N[C@@H](CCCN=C(N)N)C(=O)N1CCC[C@H]1C(=O)N[C@@H](CC(C)C)C(=O)N1CCC[C@H]1C(=O)N[C@@H](Cc1ccccc1)C(=O)N1CCC[C@H]1C(=O)N[C@@H](CCCN=C(N)N)C(=O)N1CCC[C@H]1C(=O)O` [PRPPRLPRPRPRPLPFPRP], for which the MIC in assay [1] is 64 µM (≈ 147 µg/mL); against Escherichia coli ML-35 it was at least 64 µM; in assay [22], 128 µM (≈ 294 µg/mL); in assay [23] it was at least 128 µM; in assay [24] it was above 128 µM.
